Measured values from ChEMBL document CHEMBL3045537, “Synthesis of 2-(aryl)-5-(arylidene)-4-thiazolidinone derivatives with potential analgesic and anti-inflammatory activity” (2012).

Key:
Format in all cases: functional
Mus musculus = assay: Analgesic activity in Mus musculus (mouse) assessed as protection against acetic acid-induced writhing at 10 mg/kg, po administered 30 min prior challenge measured for 20 min
Rattus norvegicus [1] = assay: Anti-inflammatory activity inRattus norvegicus albino (rat) assessed as reduction of carrageenan-induced paw edema at 10 mg/kg, po administered 1 hr prior challenge measured after 2 hr post challenge by plethismometer; design: scale not given: the % may be the effect or the level left
Rattus norvegicus [2] = assay: Anti-inflammatory activity inRattus norvegicus albino (rat) assessed as reduction of carrageenan-induced paw edema at 10 mg/kg, po administered 1 hr prior challenge measured after 4 hr post challenge by plethismometer; design: scale not given: the % may be the effect or the level left

| SMILES | Activity (Mus musculus) [%] | Activity (Rattus norvegicus [1]) [%] | Activity (Rattus norvegicus [2]) [%] |
| --- | --- | --- | --- |
| O=C(NN1C(=O)/C(=C/c2ccccc2)SC1c1ccc(Cl)cc1)c1ccc(-c2ccccc2)cc1 (configuration not stated) | 20.43 | 48.92 | 55.11 |
| O=C(NN1C(=O)/C(=C/c2cccc([N+](=O)[O-])c2)SC1c1ccc(Cl)cc1)c1ccc(-c2ccccc2)cc1 (configuration not stated) | 27.5 | 45.21 | 56.35 |
| O=C(NN1C(=O)/C(=C/c2ccc(Cl)cc2)SC1c1ccc(Cl)cc1)c1ccc(-c2ccccc2)cc1 (configuration not stated) | 22.93 | 46.14 | 55.34 |
| O=C(NN1C(=O)/C(=C/c2cccc(Br)c2)SC1c1ccc(Cl)cc1)c1ccc(-c2ccccc2)cc1 (configuration not stated) | 17.93 | 44.56 | 54.8 |
| COc1ccc(/C=C2\SC(c3ccc(Cl)cc3)N(NC(=O)c3ccc(-c4ccccc4)cc3)C2=O)cc1 (configuration not stated) | 29.6 | 45.83 | 53.87 |
| O=C(NN1C(=O)/C(=C/c2ccccc2)SC1c1cccc([N+](=O)[O-])c1)c1ccc(-c2ccccc2)cc1 (configuration not stated) | 40.85 | 38.09 | 47.99 |
| O=C(NN1C(=O)/C(=C/c2cccc([N+](=O)[O-])c2)SC1c1cccc([N+](=O)[O-])c1)c1ccc(-c2ccccc2)cc1 (configuration not stated) | 43.35 | 39.63 | 51.37 |
| O=C(NN1C(=O)/C(=C/c2ccc(Cl)cc2)SC1c1cccc([N+](=O)[O-])c1)c1ccc(-c2ccccc2)cc1 (configuration not stated) | 46.25 | 39.94 | 49.23 |
| O=C(NN1C(=O)/C(=C/c2cccc(Br)c2)SC1c1cccc([N+](=O)[O-])c1)c1ccc(-c2ccccc2)cc1 (configuration not stated) | 37.5 | 38.7 | 50.78 |
| COc1ccc(/C=C2\SC(c3cccc([N+](=O)[O-])c3)N(NC(=O)c3ccc(-c4ccccc4)cc3)C2=O)cc1 (configuration not stated) | 37.93 | 37.78 | 48.92 |
| COc1ccc(C2S/C(=C\c3ccccc3)C(=O)N2NC(=O)c2ccc(-c3ccccc3)cc2)cc1 (configuration not stated) | 38.35 | 45.83 | 68.74 |
| COc1ccc(C2S/C(=C\c3cccc([N+](=O)[O-])c3)C(=O)N2NC(=O)c2ccc(-c3ccccc3)cc2)cc1 (configuration not stated) | 36.25 | 47.68 | 71.21 |
| COc1ccc(C2S/C(=C\c3ccc(Cl)cc3)C(=O)N2NC(=O)c2ccc(-c3ccccc3)cc2)cc1 (configuration not stated) | 32.1 | 57.9 | 71.83 |
| COc1ccc(C2S/C(=C\c3cccc(Br)c3)C(=O)N2NC(=O)c2ccc(-c3ccccc3)cc2)cc1 (configuration not stated) | 33.35 | 46.75 | 69.05 |
| COc1ccc(/C=C2\SC(c3ccc(OC)cc3)N(NC(=O)c3ccc(-c4ccccc4)cc3)C2=O)cc1 (configuration not stated) | 40.43 | 49.54 | 70.28 |
| O=C(NN1C(=O)/C(=C/c2ccc(Cl)cc2)SC1c1ccc(F)cc1)c1ccc(-c2ccccc2)cc1 (configuration not stated) | 46.25 | 43.64 | 52.92 |
| O=C(NN1C(=O)/C(=C/c2cccc(Br)c2)SC1c1ccc(F)cc1)c1ccc(-c2ccccc2)cc1 (configuration not stated) | 37.5 | 41.76 | 52.08 |
| COc1ccc(/C=C2\SC(c3ccc(F)cc3)N(NC(=O)c3ccc(-c4ccccc4)cc3)C2=O)cc1 (configuration not stated) | 37.93 | 45.82 | 53.62 |
| O=C([O-])Cc1ccccc1Nc1c(Cl)cccc1Cl.[Na+] [DICLOFENAC SODIUM] | 68.5 | 54.18 | 79.26 |
